IC50 data for 23 compounds are collected here from patent EP3720857B1, “2-OXO-5H-CHROMENO[4,3-B]PYRIDINES FOR USE IN THE TREATMENT OF HEPATITIS B” (Galapagos NV, priority 2017, dated 2019).

In this assay the test system is hepatitis virus B (HBV) infection. Put plainly: HepG2 NTCP assay (HBcAg staining as marker of HBV infection). It is filed as cell-based. Conditions: HepG2-NTCP cells infected with HBV, HBV core antigen (HBcAg) as marker of infection. The source says: The principle of the hepG2-NTCP assay is to measure the effect of a test compound on the inhibition of the hepatitis virus B (HBV) infection compared to a reference compound. To be able to infect the hepatocellular carcinoma cells (HepG2) with HBV, HepG2 cells were stably transfected with the Na+-taurocholate co-transporting polypeptide (NTCP) receptor, also referred to as Sodium/bile acid cotransporter (SLC10A1), which is necessary for HBV infection. In this assay the HBV core antigen (HBcAg) is used as a marker of HBV infection. Nuclei count is used as an indication for compound toxicity.
On day one, HepG2-NTCP cells ((Ni et al., 2014)) are seeded at 5000 cells in 50 µL per well in assay medium (DMEM high glucose supplemented with 10% non-heat inactivated (non HI) fetal bovine serum (FBS), 1% P/S, 1% L-glutamine and 1% MEM NEAA) in 384 well plate and incubated at 37°C, 5% CO2 overnight.
Compounds are prepared as 10 point serial dilutions using 1/3 dilution steps in 100% DMSO starting from 10 mM highest concentration, unless otherwise requested for very potent compounds, which started from 5mM or 1mM stock. Compounds are further diluted 1/500 in assay medium.
A negative control (vehicle: 24 wells with 0.2% DMSO) and positive control (24 wells with 100nM Myrcludex B (Cas no.: 406461-66-3), 0.2% DMSO and in 10 point DR) are included in the experiments.
On the second day, 40µl medium is removed from the cells with the plate washer (Select 405 microplate washer, Biotek). 15 µL of diluted compound series is transferred to the assay plate and cells are infected with 15 µL of HBV mix (HBV virus, 4%PEG, 1%DMSO in assay medium). The infection is performed in assay medium containing final concentration of 1% DMSO. The assay plate is incubated at 37°C, 5% CO2 overnight.
The next day, 30µl compound and HBV mix are removed from the assay plate with the plate washer and 30 µL of compound series diluted 1/500 in assay medium containing final concentration of 2.5% DMSO is added to the cell assay plate. The assay plate is incubated at 37°C, 5% CO2 for 5 days.
After 5 days of incubation, supernatant is removed from the cells with the plate washer. Cells are fixed with 50 µL of 3.7% formaldehyde added with the Well mate (Matrix technologies) and incubated for 30 min at room temperature. After fixation, cells are washed four times with phosphate buffer saline (1xPBS, 137mM NaCl, 10mM na2HPO4, 2.7mM KCl, 1.8mM KH2PO4 at pH7.4). The cells are finally subjected to HBc staining.
First, the assay plate is blocked with blocking buffer (2%FBS, 3% BSA, 0.2% TritonX100 in PBS) for 1 h at room temperature (optional to block overnight at 4°C).
After 4 washes of PBST (1XPBS + 0.05% Tween) with the plate washer, the assay plate is incubated with 30 µL diluted primary antibody (1/700 Rabbit anti-HBV core antigen, Dako, B0586 or 1/350 Rabbit anti HBV core antigen, Invitrogen, PA516368) in blocking buffer and incubated for 90 min at room temperature.
After 4 washes of PBST with the plate washer, the assay plate is incubated with 50 µL of secondary antibody (Donkey-anti-rabbit Alexa 488 antibody, Lifetechnologies A21206) 1/500 diluted in blocking buffer and incubated for 60 min at room temperature and in the dark.
The assay plate is washed 4 times with PBST on the plate washer and incubated with 50µL of DAPI (Sigma D9542, stock 5mg/mL) 1/10000 diluted in PBS for 15-30 min at room temperature and in the dark. The assay plate is now ready for read out on the InCell Analyzer 2200 (GE Healthcare).
Raw data are generated following read-out performed on InCell 2200 and are imported into the galapagos LIMS for automated calculation of percentage inhibition (PIN) and toxicity by nuclei count, using the control wells mentioned above, and creation of Dose Response curves. Table V. Hepg2 NTCP assay activity of illustrative compounds of the invention
As usually defined, the IC50 is the concentration at which inhibition is half-maximal. In turn, `CC(C)C1Oc2cc(OCC3COC3)c(Cl)cc2-c2c1cc(C(=O)O)c(=O)n2C1CC1` (centres unmarked) [Compound 5, 9-chloro-1-cyclopropyl-5-isopropyl-8-(oxetan-3-ylmethoxy)-2-oxo-5H-chromeno[4,3-b]pyridine-3-carboxylic acid] showed an IC50 of 0.001 to 1 nM. `CC(C)C1Oc2cc(OCC3COCCO3)c(Cl)cc2-c2c1cc(C(=O)O)c(=O)n2C1CC1` (centres unmarked) [Compound 7, 9-chloro-1-cyclopropyl-8-(1,4-dioxan-2-ylmethoxy)-5-isopropyl-2-oxo-5H-chromeno[4,3-b]pyridine-3-carboxylic acid] yielded an IC50 of 0.001 to 1 nM.

In turn, `COCCCOc1ccc2c(c1Cl)OC(C(C)C)c1cc(C(=O)O)c(=O)n(C3CC3)c1-2` (centres unmarked) [Compound 8, 7-chloro-1-cyclopropyl-5-isopropyl-8-(3-methoxypropoxy) -2-oxo-5H-chromeno[4,3-b]pyridine-3-carboxylic acid] had an IC50 of 1 to 20 nM. `COc1cc2c(cc1OC)-c1c(cc(C(=O)O)c(=O)n1C1CC1)C(C(C)(C)C)O2` (centres unmarked) [Compound 9, 5-tert-butyl-1-cyclopropyl-8,9-dimethoxy-2-oxo-5H-chromeno[4,3-b]pyridine-3-carboxylic acid] registered an IC50 of 1 to 20 nM. On to `COCCCOc1cc2c(cc1OC)-c1c(cc(C(=O)O)c(=O)n1C1CC1)C(C(C)C)O2` (centres unmarked) [Compound 10, 1-cyclopropyl-5-isopropyl-9-methoxy-8-(3-methoxypropoxy) -2-oxo-5H-chromeno[4,3-b]pyridine-3-carboxylic acid], for which the IC50 lay within 1 to 20 nM. Compound `CCC1Oc2cc(OCCCOC)c(Cl)cc2-c2c1cc(C(=O)O)c(=O)n2C1CC1` (centres unmarked) [Compound 11, 9-chloro-1-cyclopropyl-5-ethyl-8-(3-methoxypropoxy) -2-oxo-5H-chromeno[4,3-b]pyridine-3-carboxylic acid] yielded an IC50 of 0.001 to 1 nM. Take `CCC1Oc2cc(OCCCOC)c(OC)cc2-c2c1cc(C(=O)O)c(=O)n2C1CC1` (centres unmarked) [Compound 12, 1-cyclopropyl-5-ethyl-9-methoxy-8-(3-methoxypropoxy) -2-oxo-5H-chromeno[4,3-b]pyridine-3-carboxylic acid]: the IC50 was 1 to 20 nM. Regarding `COCCCOc1cc2c(cc1Cl)-c1c(cc(C(=O)O)c(=O)n1C1CC1)C(C1COC1)O2` (centres unmarked) [Compound 13, 9-chloro-1-cyclopropyl-8-(3-methoxypropoxy) -5-(oxetan-3-yl)-2-oxo-5H-chromeno[4,3-b] pyridine-3-carboxylic acid], the IC50 lay in the range of 0.001 to 1 nM. Consider `COCCCOc1cc2c(cc1Cl)-c1c(cc(C(=O)O)c(=O)n1C1CC1)C(C)(C)O2` [Compound 14, 9-chloro-1-cyclopropyl-8-(3-methoxypropoxy) -5,5-dimethyl-2-oxo-chromeno [4,3-b]pyridine-3-carboxylic acid], for which the IC50 lay within 1 to 20 nM. In turn, `CCC1Oc2cc(OC)c(OC)cc2-c2c1cc(C(=O)O)c(=O)n2C1CC1` (centres unmarked) [Compound 15, 1-cyclopropyl-5-ethyl-8,9-dimethoxy-2-oxo-5H-chromeno[4,3-b]pyridine-3-carboxylic acid] came in with an IC50 of 20 to 100 nM.

In the case of `COc1cc2c(cc1OC)-c1c(cc(C(=O)O)c(=O)n1C1CC1)C(CO)O2` (centres unmarked) [Compound 18, 1-cyclopropyl-5-(hydroxymethyl)-8,9-dimethoxy-2-oxo-5H-chromeno[4,3-b]pyridine-3-carboxylic acid], the IC50 lay in the range of 20 to 100 nM. In the case of `[2H]C([2H])([2H])Oc1cc2c(cc1OC)-c1c(cc(C(=O)O)c(=O)n1C1CC1)C(C(C)C)O2` (centres unmarked) [Compound 20, 1-cyclopropyl-5-isopropyl-9-methoxy-2-oxo-8-(trideuteriomethoxy)-5H-chromeno[4,3-b]pyridine-3-carboxylic acid], the IC50 was 1 to 20 nM.

With `COc1cc2c(cc1Cl)-c1c(cc(C(=O)O)c(=O)n1C1CC1)C(C1COC1)O2` (centres unmarked) [Compound 21, 9-chloro-1-cyclopropyl-8-methoxy-5-(oxetan-3-yl)-2-oxo-5H-chromeno[4,3-b]pyridine-3-carboxylic acid], the IC50 was 1 to 20 nM.

Turning to `COCCCOc1cc2c(cc1Cl)-c1c(cc(C(=O)O)c(=O)n1C1CC1)C(C1(C#N)CC1)O2` (centres unmarked) [Compound 22, 9-chloro-5-(1-cyanocyclopropyl)-1-cyclopropyl-8-(3-methoxypropoxy) -2-oxo-5H-chromeno[4,3-b]pyridine-3-carboxylic acid], the IC50 was 0.001 to 1 nM. Turning to `COCCCOc1cc2c(cc1Cl)-c1c(cc(C(=O)O)c(=O)n1C1CC(F)(F)C1)C(C(C)C)O2` (centres unmarked) [Compound 23, 9-chloro-1-(3,3-difluorocyclobuty 1)-5-isopropyl-8-(3-methoxypropoxy) -2-oxo-5H-chromeno[4,3-b]pyridine-3-carboxylic acid], the IC50 fell in the range of 1 to 20 nM. In the case of `COCCCOc1cc2c(cc1C#N)-c1c(cc(C(=O)O)c(=O)n1C1CC1)C(C(C)C)O2` (centres unmarked) [Compound 24, 9-cyano-1-cyclopropyl-5-isopropyl-8-(3-methoxypropoxy) -2-oxo-5H-chromeno[4,3-b]pyridine-3-carboxylic acid], the IC50 is 0.001 to 1 nM.

For the compound `COCCOc1cc2c(cc1Cl)-c1c(cc(C(=O)O)c(=O)n1C1CC1)C(C1(C)COC1)O2` (centres unmarked) [Compound 25, 9-chloro-1-cyclopropyl-8-(2-methoxyethoxy)-5-(3-methyloxetan-3-yl)-2-oxo-5H-chromeno [4,3-b]pyridine-3-carboxylic acid], the IC50 was 0.001 to 1 nM. The compound `COCCCOc1cc2c(cc1F)-c1c(cc(C(=O)O)c(=O)n1C1CCC1)C(C1(C)COC1)O2` (centres unmarked) [Compound 26, 1-cyclobutyl-9-fluoro-8-(3-methoxypropoxy) -5-(3-methyloxetan-3-yl)-2-oxo-5H-chromeno[4,3-b]pyridine-3-carboxylic acid] yielded an IC50 of 0.001 to 1 nM. With `[2H]C1([2H])C(n2c3c(cc(C(=O)O)c2=O)C(C2(C)COC2)Oc2cc(OCCCOC)c(F)cc2-3)C1([2H])[2H]` (centres unmarked) [Compound 27, 9-fluoro-8-(3-methoxypropoxy) -5-(3-methyloxetan-3-yl)-2-oxo-1-(2,2,3,3-tetradeuteriocyclopropyl)-5H-chromeno[4,3-b]pyridine-3-carboxylic acid], the IC50 lay in the range of 0.001 to 1 nM.

Turning to `COc1cc2c(cc1OCC1(C)COC1)OC(C(C)C)c1cc(C(=O)O)c(=O)n(C3CC3)c1-2` (centres unmarked) [Compound 28, 1-cyclopropyl-5-isopropyl-9-methoxy-8-[(3-methyloxetan-3-yl)methoxy]-2-oxo-5H-chromeno[4,3-b]pyridine-3-carboxylic acid], the half-inhibitory concentration (IC50) is 1 to 20 nM. As to `COc1cc2c(cc1OCC1CN(C)C(=O)O1)OC(C(C)C)c1cc(C(=O)O)c(=O)n(C3CC3)c1-2` (centres unmarked) [Compound 29, 1-cyclopropyl-5-isopropyl-9-methoxy-8-[(3-methyl-2-oxooxazolidin-5-yl)methoxy]-2-oxo-5H-chromeno[4,3-b]pyridine-3-carboxylic acid], the IC50 was in the range of 1 to 20 nM. `COc1cc2c(cc1OCCCC#N)OC(C(C)C)c1cc(C(=O)O)c(=O)n(C3CC3)c1-2` (centres unmarked) [Compound 30, 8-(3-cyanopropoxy)-1-cyclopropyl-5-isopropyl-9-methoxy-2-oxo-5H-chromeno[4,3-b]pyridine-3-carboxylic acid] came in with an IC50 of 1 to 20 nM. As for `COCCOc1cc2c(cc1OC)-c1c(cc(C(=O)O)c(=O)n1C1CC1)C(C(C)C)O2` (centres unmarked) [Compound 31, 1-cyclopropyl-5-isopropyl-9-methoxy-8-(2-methoxyethoxy)-2-oxo-5H-chromeno[4,3-b]pyridine-3-carboxylic acid], the IC50 is 1 to 20 nM.
